# Experimental data from patent publication US11278563B2, “Rapid release pharmaceutical formulations containing algal cellulose” (priority 2016, dated 2022).
# Key:
# [1] = Degree of drug crystallinity from weight normalized melting enthalpies (TGA heat flow); assay type: physicochemical
# Method: TGA was conducted on a Mettler TG50 apparatus (10 K min^−1; 35° C. to 20° C. above the melting point of the drug) on 10-20 mg samples in aluminium crucibles under a nitrogen atmosphere (60 mL min^−1). Both normal and heated 10% mixtures were analysed and compared to the pure crystalline substance of corresponding drug content, i.e. 1-2 mg. The temperature in the furnace was continuously monitored, and the heat flow curves were collected both for heating and cooling phase to record melting or re-crystallization events.
# The weight normalized enthalpies of melting observed in cellulose-drug mixtures were calculated using the STARe Excellence software (Mettler Toledo) and compared to the weight normalized enthalpy for the pure crystalline drug, to give a rough estimate of the degree of the drug crystallinity (“Crl”) as follows.
# [formula] where ΔHmelt is weight normalised melting enthalpy of the drug in a specific cellulose-drug blend [in Joules/g] and ΔHdrug is the melting enthalpy of a pure crystalline drug [in Joules/g]. X-Ray Diffraction (XRD)
# [2] = DSC melting enthalpy and degree of crystallinity of FFA in cellulose mixtures; assay type: physicochemical; conditions: degree of crystallinity of FFA from DSC melting enthalpy, about 10 wt % FFA, n = 3
# Method: Thermal analysis was performed with TA instrument (Model Q-2000) on both cellulose-drug mixtures and pure substances. Samples were placed inside hermetically sealed aluminium crucibles with punctured lids, in order to avoid overpressure caused by water evaporation. An empty pan was used as a reference. The analysis was conducted in the temperature range from −40° C. to 150° C. with a heating rate of 10° C. min^−1. N2 gas, at a flow of 50 mL min^−1, was applied during analysis. Initially the samples were cooled from room temperature to −40° C., then heated to 150° C. and finally cooled to 25° C. again. All of the samples were stored at ambient conditions for 24 hours prior to DSC measurements. For the heated cellulose-FFA mixtures the heating conditions were 120° C. for 2 hours.
# The measurements were performed in triplicate, and the estimated amount of drug in the mixtures was 10 wt %.
structure (smiles),measurement,setting,value
"CC(=O)[C@H]1CC[C@H]2[C@@H]3CCC4=CC(=O)CC[C@]4(C)[C@H]3CC[C@]12C [PRO, progesterone]",CrlPRO (%),[1]; melting event,100%
"O=C(O)c1ccccc1Nc1cccc(C(F)(F)F)c1 [FFA, flufenamic acid]",CrlFFA.%,[2],100%
"COc1ccc2cc([C@H](C)C(=O)O)ccc2c1 [NAP, naproxen]",CrlNAP (%),[1]; melting event,100%
same,CrlNAP (%),[1]; recrystallisation event of pure NAP (NAP recryst.),76%
